How the values were obtained:
[1] = test system: ER stress response proteins in PANC-1 cells; test: Western blot of ER stress response proteins; assay type: cell-based, human
Protocol: (§1) PANC-1, MIA PaCa-2 cells were treated with PA (0–30 μM) for 10 min, 30 min or 24 h, respectively. Whole protein extracts isolated from cells and tumor tissues were prepared and western blot analysis with anti-cleaved PARP, anti-XBP-1s, anti-ATF6, anti-ATF4, anti-Hsp70, anti-CHOP, anti-phospho-eIF2α or anti-eIF2α antibodies were performed as previously described. Western blots were quantified with HP-Scanjet 550c and analyzed by UN-SCAN-IT software (Silk Scientific, Orem, UT). Three independent experiments were done for all the immunoblot studies and quantitative data composed of all the experiments with statistical analysis were added below the representative blot image.

[2] = test system: ER stress response proteins in MIA PaCa-2 cells; test: Western blot of ER stress response proteins; assay type: cell-based, human
Protocol: as §1

[3] = test system: PANC-1; design: method as in PMID 23588713; conditions: PANC-1, 24 h; read-out: IC50-24 h, inhibition of proliferation; cited from earlier work
[4] = Toxicology studies in vivo; design: species or system female nude mice; conditions: for ALP: mean ± SD (n = 10–13), control 60 ± 19; for Albumin: control 1.5 ± 0.2; for AST: control 625 ± 367
Protocol: Toxicity of PA was evaluated in the 6 weeks old female nude mice (Harlan, Indianapolis, IN). The mice were acclimatized for 1 week and treated with PA (0, 25 or 50 mg kg^-1 of body weight, n = 15 per group) by i.p. 3 times per week for additional 5 weeks. The body weight was evaluated 3 times per week. At the end of the experiment, animals were euthanized by CO2 inhalation. Blood was collected and a gross pathology examination performed. Liver, spleen, kidney, lung and heart were harvested, fixed in 10% neutral-buffered formalin at 4°C for 24 h followed tissue processing overnight and then embedded in paraffin. Five-micrometer sections were stained with H&E. The levels of alkaline phosphatase (ALP), alanine aminotransferase (ALT), aspartate aminotransferase (AST), albumin and total protein were determined at the IU Health Pathology Laboratory (Indianapolis, IN).

[5] = test system: MIA PaCa-2 tumor xenograft; test: Apoptosis measurement in tumor xenograft (apoptotic bodies, H&E); assay type: in vivo, female nude mice
Protocol: All formalin-fixed tumors were embedded in paraffin within 48 h and five-micrometer sections were stained with hematoxylin and eosin (H&E). The slides were viewed under a Leica microscope (Leica Instruments, Melville, NY) and apoptosis in the viable tumor cell area was quantified by counting apoptotic bodies in four 20 x fields of view for n = 6–12 tumors per group by 2 independent observers.

[6] = test system: ATF4 and CHOP in MIA PaCa-2 tumor tissues; test: Western blot of tumor tissues; assay type: in vivo, female nude mice; conditions: 25 mg kg^-1, vs controls
Protocol: as §1

[7] = test system: MIA PaCa-2 cells; test: Apoptosis, Cell Death Detection ELISA (cytoplasmic histone-associated DNA fragments); assay type: cell-based, human; conditions: MIA PaCa-2, PA 0–30 μM, 24 h, relative to vehicle-treated cells (=1)
Protocol: (§2) Apoptosis induction in PA-treated cells was assessed by quantitation of cytoplasmic histone-associated DNA fragments and western blotting for PARP cleavage (c-PARP). The Cell Death Detection ELISA^PLUS Kit (Roche, Indianapolis, IN) was used to detect the amount of cytoplasmic histone-associated DNA fragments according to the manufacturer’s instructions and expressed relative to vehicle-treated cells (set equal to 1).

[8] = test system: PANC-1 cells; test: as above; assay type: cell-based, human; conditions: PANC-1, PA 0–30 μM, 24 h, relative to vehicle-treated cells (=1)
Protocol: as §2

[9] = test system: HSPA6 and CHOP in MIA PaCa-2 tumor tissues; test: Quantitative RT-PCR of tumor tissues; assay type: in vivo, female nude mice; conditions: 25 mg kg^-1, vs controls
Protocol: The quantitative real-time polymerase chain reaction (qRT-PCR) was performed using ABI PRISM 7900HT Fast Real-Time PCR System (Applied Biosystems, Foster City, CA) according to the manufacturer's instructions. Total RNA was isolated from tumors with RNeasy Mini Kit (Qiagen, Valencia, CA). RNA quality was monitored and quantified using the Qubit 2.0 Fluorometer (Invitrogen, Carlsbad, CA). The RNA samples were reverse transcribed into cDNA using High Capacity cDNA Reverse Transcription Kit (Applied Biosystems, Foster City, CA). The cDNA (100 ng per sample) was subjected to qPCR analysis in triplicate. Analysis of the relative quantity gene expression (RQ) of HSPA6 and CHOP was normalized by ACTB expression and was performed using the 2^-ΔΔCt method.

[10] = test system: PARP cleavage (c-PARP) in PANC-1 cells; test: Western blot for PARP cleavage (c-PARP); assay type: cell-based, human; conditions: PANC-1, PA 0–30 μM, 24 h
Protocol: as §2, §1

[11] = test system: MIA PaCa-2 tumor xenograft; test: Human pancreatic tumor xenograft experiment; assay type: in vivo, female nude mice; conditions: day 34; for Average tumor volume: control approximately 448 mm^3
Protocol: Animal experiments were conducted strictly in accordance with the protocol approved by the Animal Research Committee at the Methodist Hospital (protocol no. 2011–07). MIA PaCa-2 cells (3x10^6) in 100 μl DPBS were implanted subcutaneously in the right flank on the ventral side of the 6 weeks old female nude mice (Harlan, Indianapolis, IN, USA). When tumors became palpable after 1–3 weeks (40–60 mm^3), animals were randomly assigned into three groups (n = 15) and received intraperitoneal (i.p.) injection 3 times per week of vehicle or PA (25 mg kg^-1 and 50 mg kg^-1) of body weight for additional 5 weeks. Tumor sizes were measured 3 times per week with microcalipers and the tumor volumes were calculated with the standard formula: tumor volume (mm^3) = L x W^2 x 0.5, where L is the length and W is the width of the tumor. At the end of the experiment (Day 35), the mice were euthanized by CO2 inhalation. The tumors were harvested and fixed in 10% neutral-buffered formalin at 4°C for 24 h or snap frozen and stored separately in liquid nitrogen.

[12] = test system: MIA PaCa-2; design: method as in PMID 23588713; conditions: MIA PaCa-2, 24 h; read-out: IC50-24 h, inhibition of proliferation; cited from earlier work
[13] = test system: normal pancreatic duct epithelial cells HPDE-6; design: method as in PMID 23588713; conditions: cited from earlier work
[14] = 25 mg kg^-1 i.p. 3 times per week
[15] = 50 mg kg^-1 i.p. 3 times per week

## C=C(CC[C@@H](C(=O)O)[C@H]1[C@H](O)C[C@@]2(C)C3=C(CC[C@]12C)[C@@]1(C)CC[C@H](OC(C)=O)C(C)(C)[C@@H]1CC3)C(C)C [PA, Pachymic acid]
[1]; PANC-1, 30 μM PA, 10 min
  PA-phosphorylated eIF2α vs control: ~2 fold
[1]; PANC-1, PA 0–30 μM, 24 h
  Activation of XBP1 and ATF4 (protein level): significantly activated
[2]; MIA PaCa-2, 30 μM PA, 10 min
  PA-phosphorylated eIF2α vs control: ~3 fold
[2]; MIA PaCa-2, PA 0–30 μM, 24 h
  Activation of XBP1 and ATF4 (protein level): significantly activated
[3]
  IC50: 23.5 µM
[4]; 25 mg kg^-1
  Liver enzyme profiles (ALP, ALT, AST, albumin, total protein): not markedly altered
  Organ pathology by H&E (liver, kidney, spleen, lung, heart): did not demonstrate any abnormalities
[4]; 25 mg kg^-1, serum
  ALP: 62 ± 9 IU L^-1
[4]; 25 mg kg^-1, serum, mean ± SD
  Albumin: 1.6 ± 0.1 g/dL
  AST: 531 ± 296 IU L^-1
[4]; 25 mg kg^-1, serum, mean ± SD, control 4.1 ± 0.5
  T Protein: 4.5 ± 0.2 g/dL
[4]; 25 mg kg^-1, serum, mean ± SD, control 123 ± 88
  ALT: 194 ± 193 IU L^-1
[4]; 50 mg kg^-1
  Clinical signs: several signs of discomfort and impaired movement
  Organ pathology by H&E (liver, kidney, spleen, lung, heart): obvious pathological changes in liver, kidney and spleen tissues
[4]; 50 mg kg^-1, serum
  ALP: 59 ± 11 IU L^-1
[4]; 50 mg kg^-1, serum, mean ± SD
  Albumin: 1.6 ± 0.1 g/dL
  AST: 1431 ± 997 IU L^-1
[4]; 25 and 50 mg kg^-1 i.p. 3 times per week, 5 weeks
  Body weight, treatment groups vs control: no significant differences
[5]; 25 mg kg^-1
  Increase of apoptotic bodies in tumors vs control: approximately 59%
[5]; 50 mg kg^-1
  Increase of apoptotic bodies in tumors vs control: ~2 fold
[6]
  Expression of ATF4 and CHOP proteins in tumors: significant increase
[7]
  PA-induced apoptosis vs control: ~8 fold
[8]
  PA-induced apoptosis vs control: ~19 fold
[9]
  Significant increase of HSPA6 and CHOP/GADD153 mRNA in tumors: not observed
[10]
  Increase in expression of PARP cleavage vs vehicle-treated control: approximately 3 fold
[11]; [14]
  Inhibition of tumor volume vs control: ~75%
  Average tumor volume: about 112 mm^3
[11]; [15]
  Inhibition of tumor volume vs control: ~80%
  Average tumor volume: ~89 mm^3
[12]
  IC50: 26.6 µM
[13]
  Effect on growth of normal pancreatic duct epithelial cells: only slightly affects

Source: PMC4411097, “Pachymic Acid Inhibits Growth and Induces Apoptosis of Pancreatic Cancer In Vitro and In Vivo by Targeting ER Stress” (PLoS ONE, 2015)
